Paper PMC5053573, “Structure-Based Design of Tetrahydroisoquinoline-7-carboxamides as Selective Discoidin Domain Receptor 1 (DDR1) Inhibitors” (Journal of Medicinal Chemistry, 2016)

Tests used:
Test in all cases: biochemical
LTK = LTK (Homo sapiens, UniProt P29376); conditions: competition binding; read-out: %Ctrl @ 1000nM
SGK2 = SGK2 (Homo sapiens, UniProt Q9HBY8); conditions: read-out: %Ctrl @ 1000nM
DDR2 = DDR2 (Homo sapiens, UniProt Q16832); conditions: read-out: %Ctrl @ 1000nM
ABL1-phosphorylated = ABL1-phosphorylated (Homo sapiens, UniProt P00519); conditions: read-out: %Ctrl @ 1000nM
CSK = CSK (Homo sapiens, UniProt P41240); conditions: read-out: %Ctrl @ 1000nM
MET(M1250T) = MET(M1250T) (Homo sapiens, UniProt P08581, M1250T); conditions: read-out: %Ctrl @ 1000nM
Sequence of MET(M1250T) (P08581 whole entry M1250T): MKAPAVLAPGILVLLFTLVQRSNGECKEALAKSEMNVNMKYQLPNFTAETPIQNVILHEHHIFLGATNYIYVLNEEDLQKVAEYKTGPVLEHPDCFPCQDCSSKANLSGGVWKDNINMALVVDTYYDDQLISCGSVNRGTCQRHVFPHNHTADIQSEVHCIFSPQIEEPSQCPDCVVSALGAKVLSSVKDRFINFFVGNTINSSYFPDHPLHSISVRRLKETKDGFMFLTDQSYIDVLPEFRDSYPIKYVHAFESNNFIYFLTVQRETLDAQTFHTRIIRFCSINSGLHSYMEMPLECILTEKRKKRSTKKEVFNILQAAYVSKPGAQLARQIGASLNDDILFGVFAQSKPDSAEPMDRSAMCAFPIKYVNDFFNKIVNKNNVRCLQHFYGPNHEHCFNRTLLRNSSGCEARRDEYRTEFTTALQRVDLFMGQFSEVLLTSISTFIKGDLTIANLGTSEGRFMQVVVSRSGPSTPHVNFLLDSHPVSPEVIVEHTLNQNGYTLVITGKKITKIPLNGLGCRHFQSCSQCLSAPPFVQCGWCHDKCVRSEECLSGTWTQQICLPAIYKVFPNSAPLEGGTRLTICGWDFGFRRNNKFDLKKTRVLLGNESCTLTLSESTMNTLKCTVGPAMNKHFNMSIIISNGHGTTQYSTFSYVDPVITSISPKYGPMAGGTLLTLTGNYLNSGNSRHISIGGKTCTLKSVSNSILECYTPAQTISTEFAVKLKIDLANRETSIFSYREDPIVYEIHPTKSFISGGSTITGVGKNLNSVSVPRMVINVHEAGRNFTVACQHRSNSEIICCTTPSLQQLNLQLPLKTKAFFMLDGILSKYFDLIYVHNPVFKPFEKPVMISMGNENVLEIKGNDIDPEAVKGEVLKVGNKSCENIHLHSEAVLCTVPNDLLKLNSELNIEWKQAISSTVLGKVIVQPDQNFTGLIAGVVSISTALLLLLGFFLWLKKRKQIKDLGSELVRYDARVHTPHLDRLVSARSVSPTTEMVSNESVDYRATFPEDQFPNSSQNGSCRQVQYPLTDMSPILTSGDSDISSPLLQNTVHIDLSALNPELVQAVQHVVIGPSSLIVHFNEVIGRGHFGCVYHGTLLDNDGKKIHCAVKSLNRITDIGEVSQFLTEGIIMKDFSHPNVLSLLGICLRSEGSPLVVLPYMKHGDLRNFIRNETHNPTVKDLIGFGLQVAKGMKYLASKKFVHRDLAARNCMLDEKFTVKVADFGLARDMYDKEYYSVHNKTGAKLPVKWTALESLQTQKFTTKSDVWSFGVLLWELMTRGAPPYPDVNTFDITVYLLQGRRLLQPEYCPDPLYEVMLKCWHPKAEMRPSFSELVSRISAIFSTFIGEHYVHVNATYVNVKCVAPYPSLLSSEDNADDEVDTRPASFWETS

MLK2 = molecular target: T1, MLK2 (Homo sapiens, UniProt Q02779); conditions: read-out: %Ctrl @ 1000nM
T1 construct: gene MAP3K10

MARK1 = MARK1 (Homo sapiens, UniProt Q9P0L2); conditions: read-out: %Ctrl @ 1000nM
EPHB4 = EPHB4 (Homo sapiens, UniProt P54760); conditions: read-out: %Ctrl @ 1000nM
CLK1 = CLK1 (Homo sapiens, UniProt P49759); conditions: read-out: %Ctrl @ 1000nM
Sequence of CLK1 (P49759 whole entry): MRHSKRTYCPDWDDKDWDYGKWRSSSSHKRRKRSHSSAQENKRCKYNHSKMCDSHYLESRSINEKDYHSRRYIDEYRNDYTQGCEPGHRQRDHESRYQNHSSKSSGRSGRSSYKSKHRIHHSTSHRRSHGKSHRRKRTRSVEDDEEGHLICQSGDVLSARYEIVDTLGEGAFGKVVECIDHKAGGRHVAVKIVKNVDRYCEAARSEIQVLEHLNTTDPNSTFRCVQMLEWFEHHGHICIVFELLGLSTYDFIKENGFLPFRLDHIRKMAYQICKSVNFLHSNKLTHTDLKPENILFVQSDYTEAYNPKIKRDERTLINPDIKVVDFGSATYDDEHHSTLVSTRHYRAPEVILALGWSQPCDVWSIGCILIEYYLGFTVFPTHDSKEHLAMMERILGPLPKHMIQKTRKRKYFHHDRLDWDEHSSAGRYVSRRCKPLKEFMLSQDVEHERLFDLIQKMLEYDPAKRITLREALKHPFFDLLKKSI

NEK3 = NEK3 (Homo sapiens, UniProt P51956); conditions: read-out: %Ctrl @ 1000nM
LOK = molecular target: T2, LOK (Homo sapiens, UniProt O94804); conditions: read-out: %Ctrl @ 1000nM
T2 construct: gene STK10

[1] = molecular target: ABL1(T315I)-phosphorylated (Homo sapiens, UniProt P00519, T315I); conditions: read-out: %Ctrl @ 1000nM
[2] = molecular target: ABL1(H396P)-nonphosphorylated (Homo sapiens, UniProt P00519, H396P); conditions: read-out: %Ctrl @ 1000nM
BRSK1 = BRSK1 (Homo sapiens, UniProt Q8TDC3); conditions: read-out: %Ctrl @ 1000nM
DAPK1 = DAPK1 (Homo sapiens, UniProt P53355); conditions: read-out: %Ctrl @ 1000nM
Sequence of DAPK1 (P53355 whole entry): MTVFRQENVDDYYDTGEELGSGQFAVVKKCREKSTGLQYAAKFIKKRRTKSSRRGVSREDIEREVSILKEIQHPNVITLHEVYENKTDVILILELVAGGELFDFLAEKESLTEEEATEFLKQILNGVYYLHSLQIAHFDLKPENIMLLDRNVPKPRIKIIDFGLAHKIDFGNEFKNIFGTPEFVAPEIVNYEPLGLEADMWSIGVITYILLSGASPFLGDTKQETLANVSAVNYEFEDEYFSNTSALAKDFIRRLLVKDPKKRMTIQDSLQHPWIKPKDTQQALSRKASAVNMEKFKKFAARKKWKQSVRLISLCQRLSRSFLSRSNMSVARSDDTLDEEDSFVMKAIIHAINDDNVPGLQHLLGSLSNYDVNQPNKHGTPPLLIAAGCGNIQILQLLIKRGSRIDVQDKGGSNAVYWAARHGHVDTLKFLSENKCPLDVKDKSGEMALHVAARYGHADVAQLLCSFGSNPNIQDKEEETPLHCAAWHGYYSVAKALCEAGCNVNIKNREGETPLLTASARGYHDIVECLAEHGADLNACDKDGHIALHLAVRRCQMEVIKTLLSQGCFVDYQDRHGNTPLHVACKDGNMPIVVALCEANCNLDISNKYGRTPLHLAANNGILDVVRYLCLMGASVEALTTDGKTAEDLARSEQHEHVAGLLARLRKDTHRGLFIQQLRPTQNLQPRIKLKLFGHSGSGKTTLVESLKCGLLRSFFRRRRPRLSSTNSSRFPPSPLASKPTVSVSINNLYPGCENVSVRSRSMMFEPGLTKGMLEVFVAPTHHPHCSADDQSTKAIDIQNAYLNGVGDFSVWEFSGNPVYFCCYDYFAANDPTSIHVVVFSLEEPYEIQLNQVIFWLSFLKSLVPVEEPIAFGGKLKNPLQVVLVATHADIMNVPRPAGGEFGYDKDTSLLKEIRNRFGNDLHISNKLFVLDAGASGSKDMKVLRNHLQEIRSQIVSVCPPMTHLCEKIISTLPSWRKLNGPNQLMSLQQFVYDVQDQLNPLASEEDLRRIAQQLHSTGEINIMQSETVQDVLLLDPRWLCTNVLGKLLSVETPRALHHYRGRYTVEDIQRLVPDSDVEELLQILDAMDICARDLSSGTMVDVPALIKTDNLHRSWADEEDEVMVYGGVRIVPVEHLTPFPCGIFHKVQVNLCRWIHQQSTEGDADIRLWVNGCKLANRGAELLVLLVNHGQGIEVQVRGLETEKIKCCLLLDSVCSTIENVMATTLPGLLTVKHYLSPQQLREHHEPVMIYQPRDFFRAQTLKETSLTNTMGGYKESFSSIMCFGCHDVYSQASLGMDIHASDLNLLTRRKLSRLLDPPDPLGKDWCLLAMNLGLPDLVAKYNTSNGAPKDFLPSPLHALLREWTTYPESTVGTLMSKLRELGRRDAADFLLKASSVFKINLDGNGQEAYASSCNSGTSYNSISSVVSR

ALK(L1196M) = ALK(L1196M) (Homo sapiens, UniProt Q9UM73, L1196M); conditions: read-out: %Ctrl @ 1000nM
PIK4CB = molecular target: T3, PIK4CB (Homo sapiens, UniProt Q9UBF8); conditions: read-out: %Ctrl @ 1000nM
T3 construct: gene PI4KB

AKT1 = AKT1 (Homo sapiens, UniProt P31749); conditions: read-out: %Ctrl @ 1000nM
NDR1 = molecular target: T4, NDR1 (Homo sapiens, UniProt Q15208); conditions: read-out: %Ctrl @ 1000nM
T4 construct: gene STK38

PRKCD = PRKCD (Homo sapiens, UniProt Q05655); conditions: read-out: %Ctrl @ 1000nM
Sequence of PRKCD (Q05655 whole entry): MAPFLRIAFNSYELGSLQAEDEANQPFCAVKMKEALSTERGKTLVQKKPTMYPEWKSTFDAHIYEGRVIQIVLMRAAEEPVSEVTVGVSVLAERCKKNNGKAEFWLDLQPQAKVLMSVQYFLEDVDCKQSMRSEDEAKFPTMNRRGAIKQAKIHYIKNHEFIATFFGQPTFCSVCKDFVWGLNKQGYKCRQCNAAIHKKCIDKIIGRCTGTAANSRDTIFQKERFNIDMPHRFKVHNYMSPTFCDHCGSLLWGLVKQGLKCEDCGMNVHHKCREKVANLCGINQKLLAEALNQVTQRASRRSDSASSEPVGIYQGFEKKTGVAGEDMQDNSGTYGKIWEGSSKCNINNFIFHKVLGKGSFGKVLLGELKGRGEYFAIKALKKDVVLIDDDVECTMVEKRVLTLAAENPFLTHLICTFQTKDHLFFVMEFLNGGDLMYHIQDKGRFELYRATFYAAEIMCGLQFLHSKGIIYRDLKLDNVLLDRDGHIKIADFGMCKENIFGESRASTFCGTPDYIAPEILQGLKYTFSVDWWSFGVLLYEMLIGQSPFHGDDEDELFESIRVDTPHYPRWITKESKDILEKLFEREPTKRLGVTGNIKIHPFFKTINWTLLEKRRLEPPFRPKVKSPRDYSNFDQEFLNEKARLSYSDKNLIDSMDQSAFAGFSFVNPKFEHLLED

RIOK2 = RIOK2 (Homo sapiens, UniProt Q9BVS4); conditions: read-out: %Ctrl @ 1000nM
FLT3(ITD,F691L) = FLT3(ITD,F691L) (Homo sapiens, UniProt P36888, F691L/ITD); conditions: read-out: %Ctrl @ 1000nM
DCAMKL3 = molecular target: T5, DCAMKL3 (Homo sapiens, UniProt Q9C098); conditions: read-out: %Ctrl @ 1000nM
T5 construct: gene DCLK3

MYLK4 = MYLK4 (Homo sapiens, UniProt Q86YV6); conditions: read-out: %Ctrl @ 1000nM
Sequence of MYLK4 (Q86YV6 whole entry): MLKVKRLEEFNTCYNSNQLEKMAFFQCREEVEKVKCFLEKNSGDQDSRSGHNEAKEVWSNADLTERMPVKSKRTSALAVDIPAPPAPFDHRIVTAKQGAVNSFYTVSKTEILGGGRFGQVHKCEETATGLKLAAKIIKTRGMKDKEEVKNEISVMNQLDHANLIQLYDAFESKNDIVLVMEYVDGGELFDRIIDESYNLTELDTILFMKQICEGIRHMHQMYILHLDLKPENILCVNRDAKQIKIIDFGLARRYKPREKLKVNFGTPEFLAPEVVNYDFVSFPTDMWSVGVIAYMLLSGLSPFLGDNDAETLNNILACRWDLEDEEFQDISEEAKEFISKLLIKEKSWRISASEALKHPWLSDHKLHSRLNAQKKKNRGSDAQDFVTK

TAK1 = molecular target: T6, TAK1 (Homo sapiens, UniProt O43318); conditions: read-out: %Ctrl @ 1000nM
T6 construct: gene MAP3K7

[3] = molecular target: T7, RSK4(Kin.Dom.2-C-terminal) (Homo sapiens, UniProt Q9UK32); conditions: read-out: %Ctrl @ 1000nM
T7 construct: gene RPS6KA6

ICK = molecular target: T8, ICK (Homo sapiens, UniProt Q9UPZ9); conditions: read-out: %Ctrl @ 1000nM
T8 construct: gene CILK1
T8 sequence (Q9UPZ9 whole entry): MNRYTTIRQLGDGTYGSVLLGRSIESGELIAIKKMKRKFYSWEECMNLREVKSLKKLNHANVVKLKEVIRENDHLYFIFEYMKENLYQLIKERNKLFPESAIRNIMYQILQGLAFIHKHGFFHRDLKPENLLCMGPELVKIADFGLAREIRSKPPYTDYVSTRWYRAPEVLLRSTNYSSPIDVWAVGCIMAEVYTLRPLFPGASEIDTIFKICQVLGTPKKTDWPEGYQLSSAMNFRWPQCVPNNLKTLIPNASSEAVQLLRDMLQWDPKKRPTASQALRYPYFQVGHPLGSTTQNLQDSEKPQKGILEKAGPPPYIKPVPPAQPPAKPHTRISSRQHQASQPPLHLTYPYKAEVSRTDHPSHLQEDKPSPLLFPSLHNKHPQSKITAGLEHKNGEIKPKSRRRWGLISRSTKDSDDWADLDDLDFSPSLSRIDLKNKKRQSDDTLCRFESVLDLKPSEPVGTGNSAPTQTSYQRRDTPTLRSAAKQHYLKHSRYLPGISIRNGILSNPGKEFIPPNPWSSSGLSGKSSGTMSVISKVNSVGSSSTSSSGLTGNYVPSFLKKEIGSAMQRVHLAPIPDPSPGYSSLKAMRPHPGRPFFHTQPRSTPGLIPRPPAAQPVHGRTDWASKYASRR

CDK4-cyclinD3 = CDK4-cyclinD3 (Homo sapiens, UniProt P11802); conditions: read-out: %Ctrl @ 1000nM
MEK6 = molecular target: T9, MEK6 (Homo sapiens, UniProt P52564); conditions: read-out: %Ctrl @ 1000nM
T9 construct: gene MAP2K6

CAMK1D = CAMK1D (Homo sapiens, UniProt Q8IU85); conditions: read-out: %Ctrl @ 1000nM
MAST1 = MAST1 (Homo sapiens, UniProt Q9Y2H9); conditions: read-out: %Ctrl @ 1000nM
[4] = molecular target: ABL1(Q252H)-phosphorylated (Homo sapiens, UniProt P00519, Q252H); conditions: read-out: %Ctrl @ 1000nM
ERK8 = molecular target: T10, ERK8 (Homo sapiens, UniProt Q8TD08); conditions: read-out: %Ctrl @ 1000nM
T10 construct: gene MAPK15

remaining binding at 1 µM (LTK): 73%
remaining activity at 1 µM (SGK2): 100%
remaining activity at 1 µM (DDR2): 0.35%
remaining activity at 1 µM (ABL1-phosphorylated): 80%
remaining activity at 1 µM (CSK): 92%
remaining activity at 1 µM (MET(M1250T)): 84%
remaining activity at 1 µM (MLK2): 98%
remaining activity at 1 µM (MARK1): 74%
remaining activity at 1 µM (EPHB4): 76%
remaining activity at 1 µM (CLK1): 92%
remaining activity at 1 µM (NEK3): 94%
remaining activity at 1 µM (LOK): 72%
remaining activity at 1 µM [1]: 97%
remaining activity at 1 µM [2]: 47%
remaining activity at 1 µM (BRSK1): 98%
remaining activity at 1 µM (DAPK1): 100%
remaining activity at 1 µM (ALK(L1196M)): 100%
remaining activity at 1 µM (PIK4CB): 95%
remaining activity at 1 µM (AKT1): 96%
remaining activity at 1 µM (NDR1): 98%
remaining activity at 1 µM (PRKCD): 94%
remaining activity at 1 µM (RIOK2): 77%
remaining activity at 1 µM (FLT3(ITD,F691L)): 100%
remaining activity at 1 µM (DCAMKL3): 86%
remaining activity at 1 µM (MYLK4): 100%
remaining activity at 1 µM (TAK1): 93%
remaining activity at 1 µM [3]: 74%
remaining activity at 1 µM (ICK): 100%
remaining activity at 1 µM (CDK4-cyclinD3): 100%
remaining activity at 1 µM (MEK6): 98%
remaining activity at 1 µM (CAMK1D): 71%
remaining activity at 1 µM (MAST1): 100%
remaining activity at 1 µM [4]: 95%
SMILES: Cc1cn(-c2cc(NC(=O)c3ccc4c(c3)CN(c3cncnc3)C[C@@H]4C)cc(C(F)(F)F)c2)cn1 [Compound 6j]
remaining activity at 1 µM (ERK8): 84%
